Reference: patent US20120116069A1, “GLUCOSE METABOLISM-IMPROVING AGENT AND GLUCOSE METABOLISM-IMPROVING COMPOSITION” (LION CORPORATION, priority 2009, published 2012)
Marks after values point to notes of the source that are not given here.

How the values were obtained:
[1] = tested on: cells derived from rat skeletal muscle (L6 cells); experiment: Intake of RI-labeled 2-deoxyglucose into differentiated L6 cells; format: cell-based; settings: n=4
Method: Cells derived from rat skeletal muscle (L6 cells, product of Dainippon Pharmaceutical Co., Ltd.) were suspended in 15 mL of DMEM (Dulbecco's modified Eagle medium, product of SIGMA Co.) containing 10% by mass FBS (fetal bovine serum, product of GIBCO Co.) and 1% by mass AB (anti-biotic solution, product of SIGMA Co.). The resultant suspension was dispensed into 75-cm^2 culture flasks and then statically cultured at 37° C. under 5% CO2. After having reached subconfluency (80%), each culture was placed in a 24-well plate (product of SUMITOMO BAKELITE CO., LTD.) at 50,000 cells/well. After having reached confluency, the cells were cultured for three days. Then, the medium was exchanged with MEM (minimal essential medium, product of NACALAI TESQUE, INC.) containing 2% by mass FBS and 1% by mass AB to thereby induce differentiation of the L6 cells. Eight days after the induction of differentiation, a solution of panaxatriol (PT) (product of LKT Laboratories, Inc.) in ethanol was added to the resultant medium so that the concentration of panaxatriol (PT) was 1 ppm or 10 ppm. The PT-free well was used as a control for each of these wells. Then, 30 hours after, the medium of each well was exchanged with MEM containing 2% by mass BSA (bovine serum albumin, product of SIGMA Co.) and panaxatriol (PT) at a concentration of 1 ppm or 10 ppm, to thereby terminate sensitization. Furthermore, 18 hours after, the MEM containing 2% by mass BSA was removed, and a KRH buffer (50 mM HEPES (product of SIGMA Co.), pH 7.4, 137 mM sodium chloride (product of Wako Pure Chemical Industries, Ltd.), 4.8 mM potassium chloride (product of Wako Pure Chemical Industries, Ltd.), 1.85 mM calcium chloride (product of Wako Pure Chemical Industries, Ltd.) and 1.3 mM magnesium sulfate (product of Wako Pure Chemical Industries, Ltd.)) was added to the wells at 30 μL/well. Thereafter, 6 μL of RI-labeled 2-deoxyglucose (2-DG, product of American Radiolabeled Chemicals Co.) (final concentration: 6.5 mM (0.5·Ci)) was added to the wells to perform reaction. Five minutes after the initiation of reaction, the cells were washed four times with an ice-cooled KRH buffer to remove 2-DG that had not been taken into the L6 cells. After removal of the KRH buffer, the cells were lysed with 250 μL of 0.05N sodium hydroxide (product of Wako Pure Chemical Industries, Ltd.) and recovered in a vial. In addition, the wells were washed twice with 200 μL of the KRH buffer and recovered in the vial similarly. Then, 3 mL of liquid scintillation cocktail PICOFLOUR (product of PerkinElmer Co., Ltd.) was added to the vial containing the cells recovered, followed by measuring for radioactivity with a liquid scintillation counter (LSC-5100, product of Aloka Co.). […]

[2] = tested on: model mice of hyperglycemia (KKAy mouse); experiment: Amount of 13CO2 excreted in exhaled gas after oral glucose-U-13C6; format: in vivo; settings: 0.1% by mass in high fat diet for one week, four hours after oral glucose-U-13C6, versus control group
Method: Twenty-four model mice of hyperglycemia (KKAy mouse (product of CLEA Japan, Inc.), male, four weeks old) were preliminarily bred for one week in individual cages under the following conditions: temperature: room temperature (22° C.±1° C.), humidity: 50%±5%, and light-dark cycle: 12 hours. Eight grams per day of CE-2 (product of CLEA Japan, Inc.) was given to each mouse as feed during the preliminary breeding, while water was given ad libitum. […] Thereafter, an aqueous solution of glucose and glucose-U-^13C6 was orally administered to each mouse at a concentration calculated from the following: [2.0 g D-glucose (product of NACALAI TESQUE, INC.)+72 mg D-glucose-U-^13C6 (99%) (product of Cambridge Isotope Lab.)/kg-body weight]. Then, the cumulative amount of ^13CO2 excreted was measured for four hours. The cumulative amount of ^13CO2 excreted is expressed as AUC (increment in the amount of ^13CO2 excreted). Here, the AUC (increment in the amount of ^13CO2 excreted) refers to an area corresponding to the increment between the amount of ^13CO2^3 excreted prior to administration of glucose-U-^13C6 (baseline) to the amount of ^13CO2 excreted measured four hours after administration of glucose-U-^13C6 in a graph where a change in the amount of ^13CO2 excreted is plotted against time after administration of glucose-U-^13C6.

SMILES | Relative activity (radioactivity of 2-DG taken in, compound-free well = 100) ([1]; 1 ppm) | Relative activity (radioactivity of 2-DG taken in, compound-free well = 100) ([1]; 10 ppm) | amount of 13CO2 excreted [2]
CC1(C)CCC[C@](C)([C@H]2CC[C@]3(C)[C@@H]2[C@H](O)C[C@@H]2[C@@]4(C)CC[C@H](O)C(C)(C)[C@@H]4[C@@H](O)C[C@]23C)O1 [PT, panaxatriol] | 132* | 145** | significantly increased
CC1(C)CCC[C@](C)([C@H]2CC[C@]3(C)[C@@H]2[C@H](O)C[C@@H]2[C@@]4(C)CC[C@H](O)C(C)(C)[C@@H]4CC[C@]23C)O1 [PD, panaxadiol] | 130* | 140** | significantly increased
